Key:
[1] = target: T1, Solute carrier family 22 member 7 (Homo sapiens, UniProt Q9Y694); experiment: TP_TRANSPORTER: inhibition of PGF2alpha uptake in OAT2-expressing S2 cells; format: functional, cell-based; conditions: for Activity: s2
T1 sequence (Q9Y694 whole entry): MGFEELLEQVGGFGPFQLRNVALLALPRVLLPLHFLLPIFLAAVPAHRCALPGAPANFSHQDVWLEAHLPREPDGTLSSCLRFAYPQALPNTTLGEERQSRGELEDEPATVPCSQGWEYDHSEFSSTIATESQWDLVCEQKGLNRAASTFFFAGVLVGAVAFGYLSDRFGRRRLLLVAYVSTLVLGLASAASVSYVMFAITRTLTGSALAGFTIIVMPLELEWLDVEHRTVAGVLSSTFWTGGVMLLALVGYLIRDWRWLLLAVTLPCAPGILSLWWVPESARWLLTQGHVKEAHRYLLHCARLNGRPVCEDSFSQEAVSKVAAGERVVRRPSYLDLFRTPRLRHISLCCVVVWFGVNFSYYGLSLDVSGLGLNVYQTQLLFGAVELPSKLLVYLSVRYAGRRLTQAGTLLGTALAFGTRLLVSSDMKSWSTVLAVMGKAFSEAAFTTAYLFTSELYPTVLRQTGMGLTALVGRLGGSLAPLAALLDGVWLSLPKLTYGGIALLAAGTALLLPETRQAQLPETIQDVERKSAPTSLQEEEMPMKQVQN

[2] = target: T2, Solute carrier family 22 member 11 (Homo sapiens, UniProt Q9NSA0); experiment: TP_TRANSPORTER: inhibition of E1S uptake in OAT4-expressing S2 cells; format: functional, cell-based
T2 sequence (Q9NSA0 whole entry): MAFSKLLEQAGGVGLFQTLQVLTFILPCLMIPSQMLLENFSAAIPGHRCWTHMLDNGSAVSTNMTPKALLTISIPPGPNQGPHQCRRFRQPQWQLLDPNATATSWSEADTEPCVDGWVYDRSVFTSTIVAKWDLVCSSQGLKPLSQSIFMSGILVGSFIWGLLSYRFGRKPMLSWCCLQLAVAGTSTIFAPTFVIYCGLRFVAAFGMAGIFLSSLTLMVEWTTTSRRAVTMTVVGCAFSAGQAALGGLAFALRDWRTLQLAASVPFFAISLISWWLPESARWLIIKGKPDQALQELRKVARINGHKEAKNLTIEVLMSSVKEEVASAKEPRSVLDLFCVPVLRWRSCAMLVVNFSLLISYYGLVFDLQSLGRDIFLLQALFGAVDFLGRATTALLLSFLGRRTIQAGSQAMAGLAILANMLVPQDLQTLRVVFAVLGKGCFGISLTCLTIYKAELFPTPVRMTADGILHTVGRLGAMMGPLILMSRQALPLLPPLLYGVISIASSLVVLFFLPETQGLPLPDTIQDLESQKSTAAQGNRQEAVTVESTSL

Activity [1] | Ki [2] [µM] | Ki [1] [µM] | Compound
is not an inhibitor [-] | 20.7 |  | CCCn1c(=O)c2[nH]c(C34CC5CC(CC3C5)C4)nc2n(CCC)c1=O [ROLOFYLLINE]
is not an inhibitor [-] | 502 |  | O=C(O)CCNC(=O)c1ccccc1 [BETAMIPRON]
is not an inhibitor [-] |  |  | CC1(C)C[C@@H]1C(=O)N/C(=C\CCCCSC[C@H](N)C(=O)O)C(=O)O [CILASTATIN]
 |  | 766 | CCCN(CCC)S(=O)(=O)c1ccc(C(=O)O)cc1 [PROBENECID]

Source: ChEMBL document CHEMBL2074113, “Interaction of human organic anion transporters 2 and 4 with organic anion transport inhibitors” (J Pharmacol Exp Ther, 2002)
